Results reported in article PMC9516332 (Frontiers in Oncology, 2022).
Where two headings read alike, the source gives them in different places.

System: 134 cancer cell lines
Assay: Cell viability assay (ATPlite, 72 hours), IC50 on cancer cell line panel

Q: How did the IC50 (Homo sapiens, MOLT-4, read-out: IC50 in cell proliferation assay, MOLT-4 cell line) turn out when `C[C@H](Nc1ncnc2nc[nH]c12)c1cc2cccc(Cl)c2c(=O)n1-c1ccccc1` [duvelisib] was run?
A: 5.92 µM

Q: What about the IC50 (Homo sapiens, MV4-11, read-out: IC50 in cell proliferation assay, MV4-11 cell line (FLT3 ITD)) of the same compound?
A: 0.014 µM

Q: And the IC50 (Homo sapiens, MeWo, read-out: IC50 in cell proliferation assay, MeWo cell line)?
A: 28.1 µM

Q: What about the IC50 (Homo sapiens, NCCIT, read-out: IC50 in cell proliferation assay, NCC-IT cell line) of the same compound?
A: 10.6 µM

Q: What about the IC50 (Homo sapiens, NCI-H82, read-out: IC50 in cell proliferation assay, cell line NCI-H82) of the same compound?
A: > 31.6 µM

Q: What about the IC50 (Homo sapiens, NCI-H460, read-out: IC50 in cell proliferation assay, NCI-H460 cell line) of the same compound?
A: 11.1 µM

Q: What about the IC50 (Homo sapiens, NCI-H661, read-out: IC50 in cell proliferation assay, NCI-H661 cell line) of the same compound?
A: 3.22 µM

Q: What about the IC50 (Homo sapiens, NCI-H716, read-out: IC50 in cell proliferation assay, cell line NCI-H716 (FGFR2-COL14A1)) of the same compound?
A: 5.31 µM

Q: What about the IC50 (Homo sapiens, NCI-H1650, read-out: IC50 in cell proliferation assay, NCI-H1650 cell line (EGFR exon19del)) of the same compound?
A: 11 µM

Q: What about the IC50 (Homo sapiens, NCI-H1975, read-out: IC50 in cell proliferation assay, NCI-H1975 cell line (EGFR p.L858R + p.T790M)) of the same compound?
A: 7.77 µM

Q: What about the IC50 (Homo sapiens, NCI-H2228, read-out: IC50 in cell proliferation assay, NCI-H2228 cell line (EML4-ALK)) of the same compound?
A: 13.8 µM

Q: What about the IC50 (Homo sapiens, OVCAR-3, read-out: IC50 in cell proliferation assay, cell line OVCAR-3) of the same compound?
A: 0.617 µM

Q: What about the IC50 (Homo sapiens, PFSK-1, read-out: IC50 in cell proliferation assay, cell line PFSK-1) of the same compound?
A: 13.1 µM

Q: And the IC50 (Homo sapiens, RL95-2, read-out: IC50 in cell proliferation assay, cell line RL95-2 (EGFR p.A289V))?
A: 3.6 µM

Q: What about the IC50 (Homo sapiens, RPMI-7951, read-out: IC50 in cell proliferation assay, cell line RPMI-7951 (BRAF p.V600E)) of the same compound?
A: 2.81 µM

Q: What about the IC50 (Homo sapiens, RS4-11, read-out: IC50 in cell proliferation assay, cell line RS4;11) of the same compound?
A: 9.2 µM

Q: And the IC50 (Homo sapiens, Rec1, read-out: IC50 in cell proliferation assay, cell line REC-1)?
A: 14.4 µM

Q: And the IC50 (Homo sapiens, SHP77, read-out: IC50 in cell proliferation assay, cell line SHP-77)?
A: > 31.6 µM

Q: And the IC50 (Homo sapiens, SK-BR-3, read-out: IC50 in cell proliferation assay, cell line SK-BR-3 (ERBB2 amplification))?
A: 2.33 µM

Q: And the IC50 (Homo sapiens, SK-N-AS, read-out: IC50 in cell proliferation assay, cell line SK-N-AS)?
A: > 31.6 µM

Q: And the IC50 (Homo sapiens, SK-N-FI, read-out: IC50 in cell proliferation assay, cell line SK-N-FI)?
A: > 31.6 µM

Q: What about the IC50 (Homo sapiens, SK-N-MC, read-out: IC50 in cell proliferation assay, cell line SK-N-MC) of the same compound?
A: 12.2 µM

Q: And the IC50 (Homo sapiens, SK-N-SH, read-out: IC50 in cell proliferation assay, cell line SK-N-SH (ALK p.F1174L))?
A: 12.6 µM

Q: And the IC50 (Homo sapiens, SNU-5, read-out: IC50 in cell proliferation assay, cell line SNU-5 (MET amplification))?
A: 11.2 µM

Q: What about the IC50 (Homo sapiens, SNU-16, read-out: IC50 in cell proliferation assay, cell line SNU-16 (FGFR2 amplification)) of the same compound?
A: > 31.6 µM

Q: And the IC50 (Homo sapiens, SNU-C2B, read-out: IC50 in cell proliferation assay, cell line SNU-C2B (EGFR p.R165Q))?
A: 9.36 µM

Q: What about the IC50 (Homo sapiens, SU-DHL-1, read-out: IC50 in cell proliferation assay, cell line SU-DHL-1 (NPM1-ALK)) of the same compound?
A: 22.6 µM

Q: What about the IC50 (Homo sapiens, SU-DHL-6, read-out: IC50 in cell proliferation assay, cell line SU-DHL-6) of the same compound?
A: 0.00177 µM

Q: What about the IC50 (Homo sapiens, SUP-T1, read-out: IC50 in cell proliferation assay, cell line SUP-T1) of the same compound?
A: 29.3 µM

Q: What about the IC50 (Homo sapiens, SW48, read-out: IC50 in cell proliferation assay, cell line SW48 (EGFR p.G719S)) of the same compound?
A: 5.94 µM

Q: And the IC50 (Homo sapiens, SW480, read-out: IC50 in cell proliferation assay, cell line SW480)?
A: 30.5 µM

Q: What about the IC50 (Homo sapiens, SW626, read-out: IC50 in cell proliferation assay, cell line SW626) of the same compound?
A: 24.9 µM

Q: And the IC50 (Homo sapiens, SW780, read-out: IC50 in cell proliferation assay, cell line SW780 (FGFR3-BAIAP2L1))?
A: > 31.6 µM

Q: And the IC50 (Homo sapiens, SW837, read-out: IC50 in cell proliferation assay, cell line SW837)?
A: 25.9 µM

Q: And the IC50 (Homo sapiens, SW872, read-out: IC50 in cell proliferation assay, cell line SW872 (BRAF p.V600E))?
A: 23.7 µM

Q: And the IC50 (Homo sapiens, SW900, read-out: IC50 in cell proliferation assay, cell line SW900)?
A: 7.57 µM

Q: And the IC50 (Homo sapiens, SW948, read-out: IC50 in cell proliferation assay, cell line SW948)?
A: 12.7 µM

Q: What about the IC50 (Homo sapiens, SW982, read-out: IC50 in cell proliferation assay, cell line SW982 (BRAF p.V600E)) of the same compound?
A: 4.21 µM

Q: And the IC50 (Homo sapiens, SW-620, read-out: IC50 in cell proliferation assay, cell line SW620)?
A: 20.1 µM

Q: And the IC50 (Homo sapiens, T98G, read-out: IC50 in cell proliferation assay, cell line T98G)?
A: 4.8 µM

Q: What about the IC50 (Homo sapiens, TCC-SUP, read-out: IC50 in cell proliferation assay, cell line TCCSUP) of the same compound?
A: 21.6 µM

Q: And the IC50 (Homo sapiens, THP-1, read-out: IC50 in cell proliferation assay, cell line THP-1)?
A: 0.15 µM

Q: And the IC50 (Homo sapiens, U2OS, read-out: IC50 in cell proliferation assay, cell line U2OS)?
A: 8.82 µM

Q: And the IC50 (Homo sapiens, U-87 MG, read-out: IC50 in cell proliferation assay, cell line U-87MG ATCC)?
A: 10.5 µM

Q: And the IC50 (Homo sapiens, U-118-MG, read-out: IC50 in cell proliferation assay, cell line U-118MG)?
A: > 31.6 µM

Q: And the IC50 (Homo sapiens, UMUC3, read-out: IC50 in cell proliferation assay, cell line UM-UC-3)?
A: 25.3 µM

Q: What about the IC50 (Hs766T, read-out: IC50 in cell proliferation assay, Hs 766T cell line) of the same compound?
A: 18.6 µM

Q: And the IC50 (L-82, read-out: IC50 in cell proliferation assay, L-82 cell line (NPM1-ALK))?
A: 22.1 µM

Q: And the IC50 (Rh30, read-out: IC50 in cell proliferation assay, cell line Rh30)?
A: 12.2 µM

Q: What about the IC50 (read-out: IC50 in cell proliferation assay, 11-18 cell line (EGFR p.L858R)) of the same compound?
A: 12.9 µM

Q: What about the IC50 (read-out: IC50 in cell proliferation assay, Hs 852.T cell line) of the same compound?
A: 21.4 µM

Q: What about the IC50 (read-out: IC50 in cell proliferation assay, JAR cell line) of the same compound?
A: 0.234 µM

Q: What about the IC50 (read-out: IC50 in cell proliferation assay, cell line 5637) of the same compound?
A: 28 µM

Q: And the IC50 (read-out: IC50 in cell proliferation assay, cell line A-388)?
A: 12.4 µM

Q: What about the IC50 (read-out: IC50 in cell proliferation assay, cell line DB) of the same compound?
A: > 31.6 µM

Q: What about the IC50 (read-out: IC50 in cell proliferation assay, cell line DEL (NPM1-ALK)) of the same compound?
A: > 31.6 µM

Q: What about the IC50 (read-out: IC50 in cell proliferation assay, cell line ES-2 (BRAF p.V600E)) of the same compound?
A: > 31.6 µM

Q: What about the IC50 (read-out: IC50 in cell proliferation assay, cell line PA-1) of the same compound?
A: 10.7 µM

Q: What about the IC50 (read-out: IC50 in cell proliferation assay, cell line PC-3) of the same compound?
A: 5.81 µM

Q: And the IC50 (read-out: IC50 in cell proliferation assay, cell line RD)?
A: 27.6 µM

Q: And the IC50 (read-out: IC50 in cell proliferation assay, cell line RKO (BRAF p.V600E))?
A: 8.82 µM

Q: What about the IC50 (read-out: IC50 in cell proliferation assay, cell line RL) of the same compound?
A: 24 µM

Q: And the IC50 (read-out: IC50 in cell proliferation assay, cell line RT-4 (FGFR3-TACC3))?
A: 9.68 µM

Q: What about the IC50 (read-out: IC50 in cell proliferation assay, cell line SR (NPM1-ALK)) of the same compound?
A: 14.1 µM

Q: And the IC50 (read-out: IC50 in cell proliferation assay, cell line T24)?
A: 31.2 µM

Q: What about the IC50 (read-out: IC50 in cell proliferation assay, cell line TT (RET p.C634W)) of the same compound?
A: > 31.6 µM

Q: And the IC50 (read-out: IC50 in cell proliferation assay, cell line VA-ES-BJ)?
A: 2.94 µM
